The values below come from US9249117B2, “Use of compounds from Antrodia camphorata in manufacturing medicaments for treating kidney diseases” (priority 2014, dated 2016).

The test system of one data set is ROS in mesangial cells. In words: Determination of reactive oxygen species (ROS) in LPS-treated mesangial cells. The data set is classed as cell-based, Mouse. The conditions noted are these: in 5 minutes; for effect for inhibiting ROS / anti-oxidative effect (in words): 0.012 μg/ml and 0.048 μg/ml; for inhibition at 0.012 µg/mL / inhibition at 0.048 µg/mL: Mus musculus, Mesangial cell, 5 min, read-out: Inhibiting ROS %. How it is done: Determination of ROS was by detecting the intensity of fluorescence from an oxide of 2′,7′-dichlorofluorescein diacetate (2′,7′-dichlorofluorescein diacetate). The mesangial cells was treated as compounds which are to be measured, and 2′,7′-dichlorofluorescein diacetate (2 μM) was added to react for 30 minutes. After reaction for 30 minutes, LPS was added at specific time. Then, the signals were determined by […] (Bio-Rad Laboratories, Inc) with exciting wavelength of 485 nm and emitting wavelength of 530 nm.
Because ROS was inseparably related to kidney diseases, the results for determination of ROS in the aforementioned cells were shown in FIG. 2A-2F.

The test system of the next data set is MCP-1. Briefly: Anti-inflammatory response: MCP-1 in supernatant by ELISA. The conditions noted are these: for anti-inflammation (MCP-1) inhibition effect (in words): 0.012 μg/ml and 0.048 μg/ml; for inhibition at 0.012 µg/mL / inhibition at 0.048 µg/mL: Mus musculus, read-out: Inhibited MCP-1 level. The class given is cell-based, Mouse. How it is done:
It is known that MCP1 plays an important role in interstitial inflammation, tubular atrophy, and kidney fibrosis. Therefore, by performing the protein test, the effects of Antrodia camphorata about anti-inflammation for the cells in kidney can be determined.
According to the manual, MCP-1 in the supernatant was detected by ELISA kits (Biosciences, Los Angeles, Calif., USA) and was determined by ELISA reader (Bio-Tek) (for wavelength absorbance of 450 nm). * * * indicated as p<0.005, NS indicated.
(In general: ELISA stands for enzyme-linked immunosorbent assay.)

Data set [1] concerns mesangial cells (Mouse MC line CRL-1927). In words: MTT cell viability assay using mesangial cells. The conditions noted are these: all chosen concentrations (0.01~200 μg/ml), 48 hours, FIGS. 1A-1F. In general terms: Formazan colour is commonly taken as a measure of viable cells.
Description: Here, Mouse MC line CRL-1927 was used in order to proceed the subsequent experiments. The cell line was derived from American Type Culture Collection (Rockville, Md., USA), and then was operated regular culture with a culture medium consisted of Dulbecco's modified Eagle's medium and Ham's F-12 medium with 3:1 ratio, and adding 5% fetal bovine serum and 14 mM HEPES.
The aforementioned cell line was cultured in the culture medium for 24 hours. The cells after hyperplasia were washed once with PBS, and treated with 1 time trypsin-EDTA, and followed by centrifuging at 1,200 rpm for 5 minutes, and the cells sedimented to form the cell pellet and the supernatant was removed. Then, 10 ml fresh medium was added, and the cells were re-suspended by shaking slightly. The cells were placed in 96-well microplate. When they were tested, 0.01˜200 μg/ml compounds from Antrodia camphorata were added into each of the well. The cells were incubated at 37° C. with 5% CO2 for 48 hours. Subsequently, 5 mg/ml 3-(4,5-dimethylthiazol-2-yl)-2,5-diphenyltetrazolium bromide (MTT) were added into the each well to react in the dark environment for 2 hours. Furthermore, in order to calculate the survival rate of the cells, the absorbance at wavelength of 570 nm was determined by enzyme-linked immunosorbent assay, and then the needed concentration for the half growth inhibition ratio (IC50) was calculated. […]

Take 4-acetyl-Antroquinonol B: the “effect for inhibiting ROS / anti-oxidative effect (in words)” value in the data set on ROS in mesangial cells is “exhibited anti-oxidation for nephritis cells”. For the same compound, the “Inhibiting ROS %” value in the data set with ROS in mesangial cells (0.012 μg/ml) worked out at 5%; in the data set with ROS in mesangial cells (0.048 μg/ml), 12%. Also, the “Inhibited MCP-1 level” value in the data set on MCP-1 (0.012 μg/ml) and with MCP-1 (0.048 μg/ml) was 0% each time. The “effect on mesangial cell growth (MTT cell viability)” value in data set [1] was “did not affect mesangial cells to grow”.

For `COC1=C(OC)C(O)C(CC=C(C)CCC=C(C)CC(O)C=C(C)C)C(C)C1=O` (centres unmarked) [Antrocamol LT1, 4-hydroxy-5-[9-hydroxy-3,7,11-trimethyldodeca-2,6,10-trienyl]-2,3-dimethoxy-6-met hyl-cyclohex-2-enone], the inhibition at 0.012 µg/mL is 3% in the data set on ROS in mesangial cells (0.012 μg/ml) and 0% in the data set with MCP-1 (0.012 μg/ml). Moreover, the results for the inhibition at 0.048 µg/mL in the data set with ROS in mesangial cells (0.048 μg/ml) and in the data set on MCP-1 (0.048 μg/ml) were 14% and 0%, respectively. The “anti-inflammation (MCP-1) inhibition effect (in words)” value in the data set with MCP-1 is “did not have the effects of inhibition”.

Take `COC1=C(OC)C(OC(C)=O)C(CC=C(C)CCC=C(C)CC(O)C=C(C)C)C(C)C1=O` (centres unmarked) [Antrocamol LT2, 4-acetoxy-5-[9-hydroxy-3,7,11-trimethyldodeca-2,6,10-trienyl]-2,3-dimethoxy-6-met hyl-cyclohex-2-enone]: the inhibition at 0.012 µg/mL in the data set with ROS in mesangial cells (0.012 μg/ml) and with MCP-1 (0.012 μg/ml) was 0% each time. Also, the inhibition at 0.048 µg/mL with ROS in mesangial cells (0.048 μg/ml) and in the data set on MCP-1 (0.048 μg/ml) was 0% throughout. For the same compound, the “anti-inflammation (MCP-1) inhibition effect (in words)” value in the data set on MCP-1 is “did not have the effects of inhibition”.

Take `COC1=C(OC)[C@H](O)[C@H](C/C=C(\C)CC/C=C(\C)C/C=C/C(C)(C)O)[C@@H](C)C1=O` [Antrocamol LT3, (4R,5R,6R)-4-hydroxy-5-[(2E,6E,9E)-11-hydroxy-3,7,11-trimethyldodeca-2,6,9-trienyl]-2,3-dimethoxy-6-methylcyclohex-2-enone]: in the data set with ROS in mesangial cells, the “effect for inhibiting ROS / anti-oxidative effect (in words)” value is given as “did not have the inhibiting effect”. In addition, the inhibition at 0.012 µg/mL in the data set with ROS in mesangial cells (0.012 μg/ml) and in the data set with MCP-1 (0.012 μg/ml) was 0% in each case. In addition, the inhibition at 0.048 µg/mL in the data set with ROS in mesangial cells (0.048 μg/ml) turned out to be 0%; with MCP-1 (0.048 μg/ml) it was 40.2%. Besides, the “anti-inflammation (MCP-1) inhibition effect (in words)” value in the data set on MCP-1 was “better effect for inhibiting MCP-1 level”.

Turning to `COC1=C(OC)[C@H](O)[C@H](C/C=C(\C)CC/C=C(\C)CCC=C(C)C)[C@@H](C)C1=O` [Antroquinonol, reference compound], the “effect for inhibiting ROS / anti-oxidative effect (in words)” value with ROS in mesangial cells is “did not have the inhibiting effect”. The inhibition at 0.012 µg/mL with ROS in mesangial cells (0.012 μg/ml) and in the data set with MCP-1 (0.012 μg/ml) was 0% each time. The inhibition at 0.048 µg/mL in the data set with ROS in mesangial cells (0.048 μg/ml) and in the data set with MCP-1 (0.048 μg/ml) was 0% throughout. Besides, the “anti-inflammation (MCP-1) inhibition effect (in words)” value in the data set on MCP-1 was “did not have the effects of inhibition”.

As to Antroquinonol B, the “effect for inhibiting ROS / anti-oxidative effect (in words)” value with ROS in mesangial cells was “exhibited anti-oxidation for nephritis cells”. The “Inhibiting ROS %” value in the data set with ROS in mesangial cells (0.012 μg/ml) was found to be 0%; in the data set on ROS in mesangial cells (0.048 μg/ml), 12.5%. In addition, the “Inhibited MCP-1 level” value in the data set on MCP-1 (0.012 μg/ml) and with MCP-1 (0.048 μg/ml) was 0% throughout. Further, the “anti-inflammation (MCP-1) inhibition effect (in words)” value in the data set on MCP-1 is “did not have the effects of inhibition”. The “effect on mesangial cell growth (MTT cell viability)” value in data set [1] is reported as “did not affect mesangial cells to grow”.
